According to patent US6166063A, “N-(substituted glycyl)-2-cyanopyrrolidines, pharmaceutical compositions containing them and their use in inhibiting dipeptidyl peptidase-IV” (Novartis AG, priority 1999, dated 2000):

Assays:
[1] = molecular target: human plasma DPP-IV (Homo sapiens, UniProt P27487); assay: DPP-IV inhibition in human plasma; assay type: biochemical; conditions: substrate H-Glycine-Proline-AMC, pH 7.8, room temperature, 8-point curve
Description: (§1) Briefly, 5 μl of plasma are added to 96-well flat-bottom microtiter plates (Falcon), followed by the addition of 5 μl of 80 mM MgCl2 in incubation buffer (25 mMHEPES, 140 mM NaCl, 1% RIA-grade BSA, pH 7.8). After a 60 min. incubation at room temperature, the reaction is initiated by the addition of 10 μl of incubation buffer containing 0.1 mM substrate (H-Glycine-Proline-AMC;AMC is 7-amino-4-methylcoumarin). The plates are covered with aluminum foil (or kept in the dark) and incubated at room temperature for 20 min. […] A fluorescence-concentration curve of free AMC is generated using 0-50 μM solutions of AMC in assay buffer. The curve generated is linear and is used for interpolation of substrate consumption (catalytic activity in nmoles substrate cleaved/min). As with the previous assay, the potency of the test compounds as DPP-IV inhibitors, expressed as IC50, is calculated from 8-point, dose-response curves using a 4 parameter logistic function.

[2] = molecular target: rat plasma DPP-IV (Rattus norvegicus, UniProt P14740); assay: DPP-IV inhibition in rat plasma
Sequence of rat plasma DPP-IV (P14740 37-767 limits assumed): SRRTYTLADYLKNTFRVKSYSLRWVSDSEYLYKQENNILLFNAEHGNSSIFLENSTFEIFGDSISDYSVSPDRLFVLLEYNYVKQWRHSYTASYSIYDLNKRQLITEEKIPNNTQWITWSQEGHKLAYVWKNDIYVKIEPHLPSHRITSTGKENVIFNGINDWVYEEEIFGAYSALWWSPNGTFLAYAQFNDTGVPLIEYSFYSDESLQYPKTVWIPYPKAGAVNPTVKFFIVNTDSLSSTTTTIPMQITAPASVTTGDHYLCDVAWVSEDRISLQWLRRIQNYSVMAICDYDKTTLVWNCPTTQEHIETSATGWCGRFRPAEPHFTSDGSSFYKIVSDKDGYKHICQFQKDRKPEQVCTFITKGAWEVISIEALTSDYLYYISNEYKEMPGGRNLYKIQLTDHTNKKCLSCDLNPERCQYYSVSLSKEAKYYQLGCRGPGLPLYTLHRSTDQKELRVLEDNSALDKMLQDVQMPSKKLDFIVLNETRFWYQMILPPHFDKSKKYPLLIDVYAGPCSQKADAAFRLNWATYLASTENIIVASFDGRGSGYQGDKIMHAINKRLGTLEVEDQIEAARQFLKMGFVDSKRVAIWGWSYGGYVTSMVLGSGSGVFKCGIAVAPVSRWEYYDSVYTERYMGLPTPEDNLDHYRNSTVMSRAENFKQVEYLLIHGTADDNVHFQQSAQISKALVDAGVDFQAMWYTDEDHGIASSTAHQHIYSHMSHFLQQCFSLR
Description: as §1

[3] = system: insulin resistant rats; assay: Early insulin response to an oral glucose challenge in insulin resistant rats; assay type: in vivo, Male Sprague-Dawley rats; conditions: 10 μmol/kg oral in CMC, 30 min before oral glucose 1 g/kg; high fat diet rats; % increase of the mean of the control animals
Description: Male Sprague-Dawley rats that had been fed a high fat diet (saturated fat=57% calories) for 2-3 weeks were fasted for approximately 2 hours on the day of testing, divided into groups of 8-10, and dosed orally with 10 μmol/kg of the test compounds in CMC. An oral glucose bolus of 1 g/kg was administered 30 minutes after the test compound directly into the stomach of the test animals. Blood samples, obtained at various timepoints from chronic jugular vein catheters, were analyzed for plasma glucose and immunoreactive insulin (IRI) concentrations, and plasma DPP-IV activity. Plasma insulin levels were assayed by a double antibody radioimmunoassay (RIA) method using a specific anti-rat insulin antibody from Linco Research (St. Louis, Mo.). The RIA has a lower limit of detection of 0.5 μU/mL with intra- and inter-assay variations of less than 5%. Data are expressed as % increase of the mean of the control animals. Upon oral administration, each of the compounds tested amplified the early insulin response which led to an improvement in glucose tolerance in the insulin resistant test animals.

Sequence of human plasma DPP-IV (P27487 39-766 limits assumed): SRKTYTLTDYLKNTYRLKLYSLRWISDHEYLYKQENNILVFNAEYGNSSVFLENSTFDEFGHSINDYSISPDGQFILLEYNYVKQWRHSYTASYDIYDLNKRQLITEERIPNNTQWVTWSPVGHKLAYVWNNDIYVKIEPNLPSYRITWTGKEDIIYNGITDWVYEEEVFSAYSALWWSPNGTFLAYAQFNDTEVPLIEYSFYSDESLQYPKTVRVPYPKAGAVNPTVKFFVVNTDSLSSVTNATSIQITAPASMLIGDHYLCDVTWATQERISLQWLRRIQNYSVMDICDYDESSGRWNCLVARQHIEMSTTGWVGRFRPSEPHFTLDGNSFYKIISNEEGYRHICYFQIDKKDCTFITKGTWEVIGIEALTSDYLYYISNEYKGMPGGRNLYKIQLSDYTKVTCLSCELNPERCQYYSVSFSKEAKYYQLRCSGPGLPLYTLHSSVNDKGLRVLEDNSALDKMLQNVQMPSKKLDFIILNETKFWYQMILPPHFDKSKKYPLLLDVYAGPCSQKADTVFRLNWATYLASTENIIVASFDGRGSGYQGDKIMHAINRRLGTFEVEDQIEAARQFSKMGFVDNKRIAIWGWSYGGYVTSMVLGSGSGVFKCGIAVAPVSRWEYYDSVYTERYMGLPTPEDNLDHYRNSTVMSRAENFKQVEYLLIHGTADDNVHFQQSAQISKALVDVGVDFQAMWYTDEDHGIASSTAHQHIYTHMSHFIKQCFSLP

IC50 [1] [nM]	IC50 [2] [nM]	SMILES	Increase of Insulin Response [3] [%]
6	12	N#C[C@@H]1CCCN1C(=O)CNC1C2CC3CC1CC(O)(C3)C2 (stereo partly drawn) [Ex. 8, Pyrrolidine, 1-[[(5-hydroxy-2-adamantyl)amino]-acetyl]-2-cyano-, (S)-]	–
–	–	N#C[C@@H]1CCCN1C(=O)CNC12CC3CC(CC(O)(C3)C1)C2 [Ex. 1, Pyrrolidine, 1-[(3-hydroxy-1-adamantyl)amino]acetyl-2-cyano-, (S)]	64
